Several values for one entry are separate records, joined by “and”; a condition that tells them apart may be missing. Identical values can stand only once. Like-named read-outs stand apart in the source and are kept apart here.
Key:
[1] = in vitro; details: human, hepg2 cells
[2] = tested on: HepG2-A16-CD81EGFP cells; details: for HepG2 1uM growth rep1 / HepG2 1uM growth rep2: HepG2, 1 µM compound treatment (10 mM stocks); for HepG2 1uM growth rep1 / HepG2 3uM growth rep1: replicate 1, normalized; for HepG2 1uM growth rep1 / HepG2 1uM growth rep2 / HepG2 3uM growth rep1 / HepG2 3uM growth rep2: average of 2 wells; for HepG2 1uM growth rep2 / HepG2 3uM growth rep2: replicate 2, normalized; for HepG2 3uM growth rep1 / HepG2 3uM growth rep2: HepG2, 3 µM compound treatment (10 mM stocks)
[3] = tested on: P. berghei-ANKA-GFP-LucCON liver stage parasites in HepG2-A16-CD81EGFP cells; test: P. berghei liver stage Pb-Luc assay, Method 1 (UCSD, 1536-well); assay type: cell-based, Plasmodium berghei; details: for activity at 1 µM / activity at 3 µM: Plasmodium berghei, 48 h, average of 2 wells on a 1536 well plate
[4] = tested on: HepG2; details: human, hepg2 cells, 48 h
[5] = tested on: Plasmodium falciparum Dd2 asexual blood stage parasites; test: microbe, parasite or virus in culture; parameters: species or system Plasmodium falciparum Dd2 in human erythrocytes; single determination (one 11-point concentration-response curve); details: Plasmodium falciparum, DD2, Erythrocyte, 72 h; read-out: AC50
[6] = in vitro; details: human, HepG2-A16-CD81EGFP cells, uninfected
[7] = P. berghei liver stage, 1 µM compound treatment (10 mM stocks), replicate 1, normalized, read-out: PbLuc 1uM growth rep1
[8] = P. berghei liver stage, 1 µM compound treatment (10 mM stocks), replicate 2, normalized, read-out: PbLuc 1uM growth rep2
[9] = P. berghei liver stage, 3 µM compound treatment (10 mM stocks), replicate 1, normalized, read-out: PbLuc 3uM growth rep1
[10] = P. berghei liver stage, 3 µM compound treatment (10 mM stocks), replicate 2, normalized, read-out: PbLuc 3uM growth rep2
[11] = 1 uM (compounds provided at 10 mM), column 11, read-out: Pb-Luc (P. berghei liver stage), % of control, lower concentration, first repeat
[12] = 1 uM (compounds provided at 10 mM), column 12, read-out: Pb-Luc (P. berghei liver stage), % of control, lower concentration, second repeat
[13] = 3 uM (compounds provided at 10 mM), column 8, read-out: Pb-Luc (P. berghei liver stage), % of control, higher concentration, first repeat
[14] = 3 uM (compounds provided at 10 mM), column 9, read-out: Pb-Luc (P. berghei liver stage), % of control, higher concentration, second repeat

SMILES: N#Cc1ccc(NC(=O)Nc2ccc(Cl)cc2)cc1 [MLS000104525-01]
- CC50 at 48 h [1]: 34.3 µM
- HepG2 1uM growth rep1 [2]: 95%
- HepG2 1uM growth rep2 [2]: 87%
- HepG2 3uM growth rep1 [2]: 72%
- HepG2 3uM growth rep2 [2]: 84%
- activity at 1 µM [3, 7]: 86%
- activity at 1 µM [3, 8]: 61%
- activity at 3 µM [3, 9]: 6.45%
- activity at 3 µM [3, 10]: 7%
- Log AC50 (M) [4]: -4.4643 M
- AC50 [5]: 5.31 µM

SMILES: COc1ccccc1CNCC(O)Cn1c2ccccc2c2ccccc21 (stereo not drawn) [MLS000391556-01]
- CC50 at 48 h [1]: 34.3 µM
- HepG2 1uM growth rep1 [2]: 97%
- HepG2 1uM growth rep2 [2]: 92%
- HepG2 3uM growth rep1 [2]: 92%
- HepG2 3uM growth rep2 [2]: 93%
- activity at 1 µM [3, 7]: 115%
- activity at 1 µM [3, 8]: 98%
- activity at 3 µM [3, 9]: 107%
- activity at 3 µM [3, 10]: 96%
- Log AC50 (M) [4]: -4.4643 M

SMILES: NS(=O)(=O)c1ccc(N/N=C/c2cn(-c3ccccc3)nc2-c2cccs2)cc1 [MLS000393371-01]
- CC50 at 48 h [1]: 21.7 µM
- HepG2 1uM growth rep1 [2]: 92%
- HepG2 1uM growth rep2 [2]: 91%
- HepG2 3uM growth rep1 [2]: 94%
- HepG2 3uM growth rep2 [2]: 94%
- activity at 1 µM [3, 7]: 80%
- activity at 1 µM [3, 8]: 57%
- activity at 3 µM [3, 9]: 26%
- activity at 3 µM [3, 10]: 21%
- Log AC50 (M) [4]: -4.6643 M
- AC50 [5]: 0.335 µM

SMILES: Cc1cccc(-c2cc3nc(C)c(C)c(NCCCn4ccnc4)n3n2)c1 [MLS000529525-01]
- CC50 at 48 h [1]: 48.5 µM
- HepG2 1uM growth rep1 [2]: 101%
- HepG2 1uM growth rep2 [2]: 92%
- HepG2 3uM growth rep1 [2]: 82%
- HepG2 3uM growth rep2 [2]: 93%
- activity at 1 µM [3, 7]: 138%
- activity at 1 µM [3, 8]: 123%
- activity at 3 µM [3, 9]: 94%
- activity at 3 µM [3, 10]: 144%
- Log AC50 (M) [4]: -4.3143 M
- AC50 [5]: 5.31 µM

SMILES: Cc1cccc(NC2=C/C(=N\S(=O)(=O)c3cccs3)c3ccccc3C2=O)c1 [MLS000585840-01]
- CC50 at 48 h [1]: 34.3 µM
- activity at 1 µM [3, 11]: 90%
- activity at 1 µM [3, 12]: 90%
- activity at 3 µM [3, 13]: 37%
- activity at 3 µM [3, 14]: 41%
- Log AC50 (M) [4]: -4.4643 M
- viability at 48 h, 1 µM [6]: 113%
- viability at 48 h, 3 µM [6]: 95%
- AC50 [5]: 0.168 µM

SMILES: Br.CCOC(=O)c1c(CSC(=N)N)n(-c2ccc(Br)cc2)c2cc(Br)c(OC(C)=O)cc12 [MLS000595146-01]
- CC50 at 48 h [1]: 48.5 µM
- HepG2 viability, % of control [2]: 100% and 96%
- Log AC50 (M) [4]: -4.3143 M
- viability at 48 h, 1 µM [6]: 105%
- viability at 48 h, 3 µM [6]: 104%

SMILES: Cc1cc(Cl)c(S(=O)(=O)N2CCN(c3ccccn3)CC2)cc1OCC(=O)NC1CCCCC1 [MLS000693481-01]
- CC50 at 48 h [1]: 27.3 µM
- activity at 1 µM [3, 11]: 102%
- activity at 1 µM [3, 12]: 96%
- activity at 3 µM [3, 13]: 68%
- activity at 3 µM [3, 14]: 80%
- Log AC50 (M) [4]: -4.5643 M
- viability at 48 h, 1 µM [6]: 91%
- viability at 48 h, 3 µM [6]: 105%
- AC50 [5]: 0.668 µM

SMILES: CC1(C)Cc2ccccc2C2=NNC(=O)C2=N1 [MLS000709658-01]
- CC50 at 48 h [1]: 34.3 µM
- HepG2 1uM growth rep1 [2]: 98%
- HepG2 1uM growth rep2 [2]: 96%
- HepG2 3uM growth rep1 [2]: 90%
- HepG2 3uM growth rep2 [2]: 99%
- activity at 1 µM [3, 7]: 117%
- activity at 1 µM [3, 8]: 83%
- activity at 3 µM [3, 9]: 68%
- activity at 3 µM [3, 10]: 64%
- Log AC50 (M) [4]: -4.4643 M
- AC50 [5]: 3.35 µM

SMILES: O=C1NC(=S)S/C1=C\C=C\c1ccc([N+](=O)[O-])o1 [MLS000722913-01]
- CC50 at 48 h [1]: 13.7 µM
- activity at 1 µM [3, 11]: 80%
- activity at 1 µM [3, 12]: 77%
- activity at 3 µM [3, 13]: 57%
- activity at 3 µM [3, 14]: 67%
- Log AC50 (M) [4]: -4.8643 M
- viability at 48 h, 1 µM [6]: 112%
- viability at 48 h, 3 µM [6]: 101%
- AC50 [5]: 5.31 µM

SMILES: CCCN(CCC)CCCN=C(S)Nc1ccc2nc(N3CCCC3)cc(C)c2c1 [MLS000730709-01]
- CC50 at 48 h [1]: 43.2 µM
- activity at 1 µM [3, 11]: 141%
- activity at 1 µM [3, 12]: 128%
- activity at 3 µM [3, 13]: 67%
- activity at 3 µM [3, 14]: 66%
- Log AC50 (M) [4]: -4.3643 M
- viability at 48 h, 1 µM [6]: 112%
- viability at 48 h, 3 µM [6]: 103%

SMILES: COc1ccc2nc3cc(Cl)ccc3c(Nc3cc(C(C)C)c(O)cc3C)c2c1 [MLS000737404-01]
- CC50 at 48 h [1]: 43.2 µM
- activity at 1 µM [3, 11]: 113%
- activity at 1 µM [3, 12]: 97%
- activity at 3 µM [3, 13]: 61%
- activity at 3 µM [3, 14]: 53%
- Log AC50 (M) [4]: -4.3643 M
- viability at 48 h, 1 µM [6]: 112%
- viability at 48 h, 3 µM [6]: 95%
- AC50 [5]: 0.266 µM

SMILES: Cc1cc(N)c2cc(NC(=O)/C=C/c3ccccc3Cl)ccc2n1 [MLS000737665-01]
- CC50 at 48 h [1]: 43.2 µM
- activity at 1 µM [3, 11]: 86%
- activity at 1 µM [3, 12]: 67%
- activity at 3 µM [3, 13]: 21%
- activity at 3 µM [3, 14]: 37%
- Log AC50 (M) [4]: -4.3643 M
- viability at 48 h, 1 µM [6]: 105%
- viability at 48 h, 3 µM [6]: 108%
- AC50 [5]: 1.88 µM

SMILES: CC(C)CN(Cc1cc(=O)oc2cc(-c3ccccc3)c(O)cc12)CC(C)C [MLS000779012-01]
- CC50 at 48 h [1]: 43.2 µM
- activity at 1 µM [3, 11]: 87%
- activity at 1 µM [3, 12]: 88%
- activity at 3 µM [3, 13]: 59%
- activity at 3 µM [3, 14]: 60%
- Log AC50 (M) [4]: -4.3643 M
- viability at 48 h, 1 µM [6]: 98%
- viability at 48 h, 3 µM [6]: 101%

SMILES: N=c1c2c(n(Cc3ccc(F)cc3)c3c1CCC3)CCCC2 [MLS000856097-01]
- CC50 at 48 h [1]: 17.2 µM
- activity at 1 µM [3, 11]: 60%
- activity at 1 µM [3, 12]: 59%
- activity at 3 µM [3, 13]: 19%
- activity at 3 µM [3, 14]: 15%
- Log AC50 (M) [4]: -4.7643 M
- viability at 48 h, 1 µM [6]: 105%
- viability at 48 h, 3 µM [6]: 81%
- AC50 [5]: 2.99 µM

SMILES: ClC(Cl)(Cl)c1nc2ccccc2n2nncc12 [MLS001171504-01]
- CC50 at 48 h [1]: 43.2 µM
- activity at 1 µM [3, 11]: 113%
- activity at 1 µM [3, 12]: 83%
- activity at 3 µM [3, 13]: 87%
- activity at 3 µM [3, 14]: 102%
- Log AC50 (M) [4]: -4.3643 M
- viability at 48 h, 1 µM [6]: 106%
- viability at 48 h, 3 µM [6]: 95%
- AC50 [5]: 2.11 µM

SMILES: C/C(=N\Nc1ncnc2sc(C)c(C)c12)c1ccccn1 [MLS001176565-01]
- CC50 at 48 h [1]: 0.485 µM
- HepG2 1uM growth rep1 [2]: 55%
- HepG2 1uM growth rep2 [2]: 50%
- HepG2 3uM growth rep1 [2]: 36%
- HepG2 3uM growth rep2 [2]: 44%
- activity at 1 µM [3, 7]: 11%
- activity at 1 µM [3, 8]: 8%
- activity at 3 µM [3, 9]: 6%
- activity at 3 µM [3, 10]: 5%
- Log AC50 (M) [4]: -6.3143 M
- AC50 [5]: 1.33 µM

SMILES: CCOc1cccc(CNCCc2c(C)[nH]c3ccc(OC(F)(F)F)cc23)c1O.O=C(O)C(=O)O [MLS001198351-01]
- CC50 at 48 h [1]: 34.3 µM
- HepG2 1uM growth rep1 [2]: 97%
- HepG2 1uM growth rep2 [2]: 92%
- HepG2 3uM growth rep1 [2]: 70%
- HepG2 3uM growth rep2 [2]: 71%
- activity at 1 µM [3, 7]: 46%
- activity at 1 µM [3, 8]: 47%
- activity at 3 µM [3, 9]: 9%
- activity at 3 µM [3, 10]: 16%
- Log AC50 (M) [4]: -4.4643 M
- AC50 [5]: 2.37 µM

SMILES: CC(Sc1nc2ccccc2c(=O)n1C)C(=O)Nc1ccc2c(c1)OCCO2 (stereo not drawn) [MLS002161477-01]
- CC50 at 48 h [1]: 43.2 µM
- Max Resp (signal direction of the dose response) ([3]; Method 1, Decrease = decreasing P. berghei viability with dose, Increase = increasing signal, Inactive = no dose response): Inactive
- Log AC50 (M) [4]: -4.3643 M
- viability at 48 h [6]: 84%
- viability at 48 h, 1 µM [6]: 84%

Source: paper PMC7822874, “Chemoprotective antimalarials identified through quantitative high-throughput screening of Plasmodium blood and liver stage parasites” (Scientific Reports, 2021)
